In paper PMC5640672, “Molecular mechanism of synergy between the antimicrobial peptides PGLa and magainin 2” (Scientific Reports, 2017):
No end group written: not given here.

Tests used:
[1] = Fluorescence ANTS/DPX vesicle leakage assay in POPC/POPG (3:1); conditions: for Leakage, mean value: ANTS/DPX, POPC/POPG (3:1) 100 nm vesicles, P/L about 1:160 per peptide, mixtures 1:1, 10 mM HEPES pH 7.5, 155 mM NaCl, 30 °C, 600 s, % of Triton-X-100 leakage, fluorescence, mean of n = 3; for Leakage synergy in combination with MAG2-E19K / Leakage synergy in combination with MAG2-E19K-amide: POPC/POPG (3:1) vesicles, result in words
Protocol: The synergy was also investigated by a fluorescence ANTS/DPX leakage assay[24],[27],[30]. As described in the Methods section, leakage from POPC/POPG (3:1) vesicles was measured for 10 minutes after the addition of vesicles to a peptide solution. Leakage is expressed as percentage of the full leakage, which was obtained after addition of detergent. A synergy factor was defined to describe the enhancement of leakage of the mixture compared to the sum of the extent of leakage for each component. […] In general a synergy factor above 2 indicated synergy. […] In the leakage assay, this pore formation can be studied under more controlled conditions. Here we use two lipid compositions for the vesicles, which are mimicking bacterial membranes.
(§1) Leakage of small unilamellar vesicles induced by the peptides was studied using a standard fluorescence assay.
(§2) The appropriate lipids for each experiment were dissolved in CHCl3, together with 0.02 mol-% Rhodamine-PE (Rh-PE). […] This stock suspension was subjected to 10 freeze-thaw cycles and then frozen. Appropriate aliquots of the stock lipid suspension were unfrozen each day and extruded (41 times) through polycarbonate membranes with 100 nm pore size, and stored at room temperature overnight. The fluorophore and quencher outside the vesicles were removed by size exclusion chromatography using spin-columns (Pierce centrifuge column, 2 ml, Life Technologies GmbH, Darmstadt, Germany) filled with Sephacryl 100-HR (2 min, 1500 × g). For elution, a 10 mM HEPES buffer (pH 7.5) was used, containing 155 mM NaCl to balance the osmolarity. After extrusion and removal of the external dye and quencher, the lipid concentration usually decreases. Therefore, before each set of measurements a rhodamine spectrum was recorded to determine the actual concentration of lipids, which was referenced to a spectrum taken of vesicles made by sonification without any subsequent treatment.
(§3) Fluorescence experiments were performed on a FluoroMax2 spectrofluorimeter (HORIBA Jobin Yvon, Unterhaching, Germany) equipped with a thermostated sample holder and magnetic stirrer, using an excitation wavelength of 355 nm, an emission wavelength of 508 nm, and slit widths of 5 nm. The peptide solutions were placed in elution buffer in a 1 cm standard cuvette at 30 °C. 100 s after the start of the measurement lipid vesicles were added, and the intensity of the fluorescence at 508 nm was recorded. The leakage was measured during 600 s after addition of vesicles, and the measurement was terminated after addition of Triton-X-100 (0.25% v/v), which dissolved the vesicles, and yielded 100% leakage. To determine the background signal of the vesicles themselves, several blanks were recorded per measurement set. From the leakage values of the peptides alone and of the mixture of two peptides a synergy factor SF was calculated:3 SF=L(A+B)/[L(A)+L(B)] […] Measurements were repeated three times and average values and standard deviations calculated for the leakage and the synergy factors. An average SF ≥ 2 was taken to indicate synergy.

[2] = Fluorescence ANTS/DPX vesicle leakage assay in POPE/POPG/TOCL (72:23:5); conditions: POPE/POPG/TOCL (72:23:5) 100 nm vesicles, P/L ≈ 1:30, mixtures 1:1, 10 mM HEPES pH 7.5, 155 mM NaCl, 30 °C, 600 s, % of Triton-X-100 leakage, mean of n = 3
Excerpt: It could be argued that POPC/POPG (3:1) is not the most appropriate model system to describe a bacterial membrane, which rarely contains PC lipids. We therefore also performed leakage in another lipid system, POPE/POPG/TOCL (72:23:5), which is a good model of E. coli membranes[45],[69],[70]. […] For all of the other mutants discussed below, leakage was also studied both in POPC/POPG as well as POPE/POPG/TOCL, but since the results (synergy or no synergy) were in all cases the same, the latter data will not be presented in the text. All leakage data in POPE/POPG/TOCL (72:23:5) for charge mutants are summarized in Supplementary Table S4.
as §1, §2
as §3, with “SF=L(A+B)/[L(A)+L(B)] Here, L(A) is the leakage found with peptide A alone, L(B) is the leakage found with peptide B alone, and L(A + B) is the leakage found with the mixture of peptides A and B. In all cases the P/L was the same for both peptides, alone and in the mixture, so that in the mixture the total P/L was twice that of the individual peptide measurements.” for “SF=L(A+B)/[L(A)+L(B)]”

[3] = Table S11 series (MSI-to-PGLa mutants)
[4] = Table S3 series (charge mutants)
[5] = Table S4 series (charge mutants)
[6] = Table S7 series (PGLa-to-MSI mutants)
[7] = Table S8 series (PGLa-to-MSI mutants)
[8] = Table S12 series (MSI-to-PGLa mutants)

For “KIAGKAGKIAGKIAKIAGKIA-NH2 (also: 15N-labeled Ala10) [MtP-I6A-A7G, MSI-103 double mutant I6A, A7G]”, the “Leakage, mean value” [1, 3] was 0.8%.

For “KIASKIGKIAGKIAKIAGKIA-NH2 (also: 15N-labeled Ala10) [MtP-G4S-A7G, MSI-103 double mutant G4S, A7G]”, the “Leakage, mean value” [1, 3] was 1.4%.

For “GMASKAGAIAGKIAEVALKAL-NH2 [PGLa-K15E, PGLa charge mutant K15E]”, the “Leakage synergy in combination with MAG2-E19K” value [1] was “did not show synergy”, the “Leakage synergy in combination with MAG2-E19K-amide” value [1] was “did not show synergy” and the “Leakage, mean value” [1, 4] was 2.9%. The “Leakage, mean value” [2, 5] was 2.5%.

In the case of “KIAGKIAKIAGKIAKVALKAL-NH2 [PtM-a1, PGLa to MSI-103 mutant, segment A replaced]”, the “Leakage, mean value” [1, 6] is reported as 4.7% and the “Leakage, mean value” [2, 7] is reported as 18.6%.

In the case of “GMASKAGAIAGKIAKVALEAL-NH2 [PGLa-K19E, PGLa charge mutant K19E]”, the “Leakage synergy in combination with MAG2-E19K” value [1] is reported as “did not show synergy”, the “Leakage synergy in combination with MAG2-E19K-amide” value [1] is reported as “did not show synergy” and the “Leakage, mean value” [1, 4] is reported as 3.0%. The “Leakage, mean value” [2, 5] was 1.7%.

In the case of “KIAGKIAKIAGKIAKIAGKIA-NH2 [MSI-103, designer-made AMP ([KIAGKIA]3-NH2) derived from PGLa, reference compound]”, the “Leakage, mean value” [1, 6] is reported as 2.0% and the “Leakage, mean value” [2, 7] is reported as 5.6%.

In the case of “KIAGKIAAIAGKIAKIAGKIA-NH2 [MtP-K8A, MSI-103 to PGLa single mutant K8A]”, the “Leakage, mean value” [1, 3] is reported as 1.7% and the “Leakage, mean value” [2, 8] is reported as 1.8%.

With “GMASKIAKIAGKIAKVALKAL-NH2 [PtM-a3, PGLa to MSI-103 mutant, three amino acids converted]” the “Leakage, mean value” [1, 6] was 3.3% and the “Leakage, mean value” [2, 7] was 9.1%.

With “GMASKAGAIAGEIAKVALKAL-NH2 [PGLa-K12E, PGLa charge mutant K12E]” the “Leakage, mean value” [1, 4] was 3.1% and the “Leakage, mean value” [2, 5] was 2.3%.

For “KIAGKAAKIAGKIAKIAGKIA-NH2 [MtP-I6A, MSI-103 to PGLa single mutant I6A]”, the “Leakage, mean value” [1, 3] was 1.6% and the “Leakage, mean value” [2, 8] was 4.8%.

With “GIGKFLHSAKKFGKAFVGQIMNS-OH [MAG2-E19Q, MAG2 charge mutant E19Q]” the “Leakage, mean value” [1, 4] was 5.9% and the “Leakage, mean value” [2, 5] was 1.1%.

For “GMASKAAAIAGKIGKVALKAL-NH2 (also: 15N-labeled Ala10) [PGLa-GS1, PGLa glycine-shift mutant with GxxG motif]”, the “Leakage, mean value” ([1]; Table S15 series (Gly mutants)) was 1.9% and the “Leakage, mean value” ([2]; Table S16 series (Gly mutants)) was 2.7%.

In the case of “KIAGKAGAIAGKIAKIAGKIA-NH2 [MtP-a3, MSI-103 triple mutant I6A, A7G, K8A]”, the “Leakage, mean value” [1, 3] is reported as 0.9% and the “Leakage, mean value” [2, 8] is reported as 0.9%.

For “KIAGKIGAIAGKIAKIAGKIA-NH2 (also: 15N-labeled Ala10) [MtP-K8A-A7G, MSI-103 double mutant K8A, A7G]”, the “Leakage, mean value” [1, 3] was 1.3%.

For “GIGKFLHSAKKFGKAFVGEIMNS-OH [MAG2-WT, magainin 2, wild type antimicrobial peptide from Xenopus laevis skin, reference compound]”, the “Leakage, mean value” [1, 4] was 3.1%, the “Leakage, mean value” [1, 6] was 3.2% and the “Leakage, mean value” [1, 3] was 3.2%. The “Leakage, mean value” ([1]; Table S15 series (Gly mutants)) was 3.2%, the “Leakage, mean value” [2, 5] was 1.1% and the “Leakage, mean value” [2, 7] was 1.2%. The “Leakage, mean value” [2, 8] was 1.0% and the “Leakage, mean value” ([2]; Table S16 series (Gly mutants)) was 1.1%.

With “GIGKFLHSAKKFGKAFVGEIMNS-NH2 [MAG2-amide, MAG2 with amidated C-terminus]” the “Leakage, mean value” [1, 4] was 3.7% and the “Leakage, mean value” [2, 5] was 0.8%.

With “GMASEAGAIAGKIAKVALKAL-NH2 [PGLa-K5E, PGLa charge mutant K5E]” the “Leakage, mean value” [1, 4] was 3.5% and the “Leakage, mean value” [2, 5] was 2.2%.

For “GMASKAAAIAGKIAKVALKAL-NH2 (also: 15N-labeled Ala10) [PtM-G7A, PGLa single mutant G7A]”, the “Leakage, mean value” [1, 6] was 2.1% and the “Leakage, mean value” [2, 7] was 3.7%.

With “GMASKAIAG A IKGAKVALKAL-NH2 [PGLa-GS2, PGLa glycine-shift mutant, GxxxG on opposite helix face]” the “Leakage, mean value” ([1]; Table S15 series (Gly mutants)) was 2.0% and the “Leakage, mean value” ([2]; Table S16 series (Gly mutants)) was 2.2%.

With “KIAGKAGAIAGKIAKIALKIA-NH2 (also: 15N-labeled Ala10) [MtP-a4, MSI-103 mutant with MtP-A3 mutations plus G18L]” the “Leakage, mean value” [1, 3] was 2.5% and the “Leakage, mean value” [2, 8] was 2.6%.

For “GMASKAGAIA IKIAKVALKAL-NH2 [PGLa-G11I, PGLa glycine mutant G11I]”, the “Leakage, mean value” ([1]; Table S15 series (Gly mutants)) was 11.0% and the “Leakage, mean value” ([2]; Table S16 series (Gly mutants)) was 11.4%.

In the case of “KIAGKIGKIAGKIAKIALKIA-NH2 (also: 15N-labeled Ala10) [MtP-A7G-G18L, MSI-103 double mutant A7G, G18L]”, the “Leakage, mean value” [1, 3] is reported as 4.9%.

For “GMASKAGAIAGKIAKVALKAL-NH2 [PGLa-WT, PGLa wild type antimicrobial peptide from Xenopus laevis skin, 15N-labeled at Ala10, reference compound]”, the “Leakage, mean value” [1, 4] was 2.3%, the “Leakage, mean value” [1, 6] was 2.7% and the “Leakage, mean value” [1, 3] was 2.3%. The “Leakage, mean value” ([1]; Table S15 series (Gly mutants)) was 2.2%, the “Leakage, mean value” [2, 5] was 2.2% and the “Leakage, mean value” [2, 7] was 2.2%. The “Leakage, mean value” [2, 8] was 2.1% and the “Leakage, mean value” ([2]; Table S16 series (Gly mutants)) was 2.3%.
